According to the supplement of paper PMC10627819:

Legend:
Test in all cases: Bliss interaction score (quartile over a dose matrix) (fitness difference); higher = more antagonism (negative = synergy)
B. subtilis 168 = test system: B. subtilis 168
In short: (§1)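 Each plate was normalised to the robust mean of its own no-drug wells, using OD595 at entry into stationary phase, with values capped at 1. This normalised growth is the fitness value. The Bliss score is the difference between observed and product-expected fitness, with single-drug fitness inferred from the combination data and quartiles taken over technical, biological and donor/recipient replicates.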

S. aureus Newman = test system: S. aureus Newman
In short: as §1

S. pneumoniae D39V = test system: S. pneumoniae D39V
In short: as §1

S. aureus DSM 20231 = test system: S. aureus DSM 20231
In short: as §1
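Also: first quartile when negative (synergy) and third quartile when positive (antagonism).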

SMILES	Bliss interaction score (B. subtilis 168)	Bliss interaction score (S. aureus Newman)	Bliss interaction score (S. pneumoniae D39V)	Bliss interaction score (S. aureus DSM 20231)	Bliss interaction score (B. subtilis 168; main component drawn)	Bliss interaction score (S. aureus Newman; main component drawn)	Bliss interaction score (S. pneumoniae D39V; main component drawn)	Bliss interaction score (S. aureus DSM 20231; main component drawn)
CCCCCCCCCC(=O)N[C@@H](Cc1c[nH]c2ccccc12)C(=O)N[C@H](CC(N)=O)C(=O)N[C@@H](CC(=O)O)C(=O)N[C@@H]1C(=O)NCC(=O)N[C@@H](CCCN)C(=O)N[C@@H](CC(=O)O)C(=O)N[C@H](C)C(=O)N[C@@H](CC(=O)O)C(=O)NCC(=O)N[C@H](CO)C(=O)N[C@@H]([C@H](C)CC(=O)O)C(=O)N[C@@H](CC(=O)c2ccccc2N)C(=O)O[C@@H]1C [Daptomycin] + CC[C@H]1OC(=O)[C@H](C)[C@@H](O[C@H]2C[C@@](C)(OC)[C@@H](O)[C@H](C)O2)[C@H](C)[C@@H](O[C@@H]2O[C@H](C)C[C@H](N(C)C)[C@H]2O)[C@](C)(O)C[C@@H](C)C(=O)[C@H](C)[C@@H](O)[C@]1(C)O [Erythromycin]	0.102	-0.034	-0.0815	0.0418				
CCCCCCCCCC(=O)N[C@@H](Cc1c[nH]c2ccccc12)C(=O)N[C@H](CC(N)=O)C(=O)N[C@@H](CC(=O)O)C(=O)N[C@@H]1C(=O)NCC(=O)N[C@@H](CCCN)C(=O)N[C@@H](CC(=O)O)C(=O)N[C@H](C)C(=O)N[C@@H](CC(=O)O)C(=O)NCC(=O)N[C@H](CO)C(=O)N[C@@H]([C@H](C)CC(=O)O)C(=O)N[C@@H](CC(=O)c2ccccc2N)C(=O)O[C@@H]1C [Daptomycin] + CN[C@H](CC(C)C)C(=O)N[C@H]1C(=O)N[C@@H](CC(N)=O)C(=O)N[C@H]2C(=O)N[C@H]3C(=O)N[C@H](C(=O)N[C@H](C(=O)O)c4cc(O)cc(O)c4-c4cc3ccc4O)[C@H](O[C@H]3C[C@](C)(N)[C@@H](O)[C@H](C)O3)c3ccc(c(Cl)c3)Oc3cc2cc(c3O[C@@H]2O[C@H](CO)[C@@H](O)[C@H](O)[C@H]2O[C@H]2C[C@](C)(NCc3ccc(-c4ccc(Cl)cc4)cc3)[C@@H](O)[C@H](C)O2)Oc2ccc(cc2Cl)[C@H]1O [Oritavancin]	-0.0305	0.0913	0.0853	0.0891				
CCCCCCCCCC(=O)N[C@@H](Cc1c[nH]c2ccccc12)C(=O)N[C@H](CC(N)=O)C(=O)N[C@@H](CC(=O)O)C(=O)N[C@@H]1C(=O)NCC(=O)N[C@@H](CCCN)C(=O)N[C@@H](CC(=O)O)C(=O)N[C@H](C)C(=O)N[C@@H](CC(=O)O)C(=O)NCC(=O)N[C@H](CO)C(=O)N[C@@H]([C@H](C)CC(=O)O)C(=O)N[C@@H](CC(=O)c2ccccc2N)C(=O)O[C@@H]1C [Daptomycin] + CO[C@@]12[C@H](COC(N)=O)C3=C(C(=O)C(C)=C(N)C3=O)N1C[C@@H]1N[C@@H]12 [MitomycinC]	0.0997	-0.0398	-0.0769	0.0739				
CCCCCCCCCC(=O)N[C@@H](Cc1c[nH]c2ccccc12)C(=O)N[C@H](CC(N)=O)C(=O)N[C@@H](CC(=O)O)C(=O)N[C@@H]1C(=O)NCC(=O)N[C@@H](CCCN)C(=O)N[C@@H](CC(=O)O)C(=O)N[C@H](C)C(=O)N[C@@H](CC(=O)O)C(=O)NCC(=O)N[C@H](CO)C(=O)N[C@@H]([C@H](C)CC(=O)O)C(=O)N[C@@H](CC(=O)c2ccccc2N)C(=O)O[C@@H]1C [Daptomycin] + Oc1cc(Cl)ccc1Oc1ccc(Cl)cc1Cl [Triclosan]	-0.0488	-0.0264	0.0768	0.0576				
C[C@H]1COc2c(N3CCN(C)CC3)c(F)cc3c(=O)c(C(=O)O)cn1c23 [Levofloxacin] + CC1(C)S[C@@H]2[C@H](NC(=O)Cc3ccccc3)C(=O)N2[C@H]1C(=O)O [PenicillinG]	0.0528	-0.0602	-0.103	0.0432				
C[C@H]1COc2c(N3CCN(C)CC3)c(F)cc3c(=O)c(C(=O)O)cn1c23 [Levofloxacin] + CCCCCCCCCC(=O)N[C@@H]1[C@H]([C@@H]([C@H](O[C@H]1OC2=C3C=C4C=C2OC5=C(C=C(C=C5)[C@H]([C@H]6C(=O)N[C@@H](C7=C(C(=CC(=C7)O)OC8[C@H]([C@H]([C@@H]([C@H](O8)CO)O)O)O)C9=C(C=CC(=C9)[C@H](C(=O)N6)NC(=O)[C@@H]4NC(=O)[C@@H]1C2=CC(=CC(=C2)OC2=C(C=CC(=C2)[C@H](C(=O)N[C@H](CC2=CC(=C(O3)C=C2)Cl)C(=O)N1)N)O)O)O)C(=O)O)O[C@H]1[C@@H]([C@H]([C@@H]([C@H](O1)CO)O)O)NC(=O)C)Cl)CO)O)O [Teicoplanin]					0.0334	-0.0552	-0.0681	-0.0673
C[C@H]1COc2c(N3CCN(C)CC3)c(F)cc3c(=O)c(C(=O)O)cn1c23 [Levofloxacin] + CC[C@H]1OC(=O)[C@H](C)C(=O)[C@H](C)[C@@H](O[C@@H]2O[C@H](C)C[C@H](N(C)C)[C@H]2O)[C@](C)(OC)C[C@@H](C)C(=O)[C@H](C)[C@H]2N(CCCCn3cnc(-c4cccnc4)c3)C(=O)O[C@]12C [Telithromycin]	0.0654	0.0408	0.0737	0.0361				
C[C@H]1COc2c(N3CCN(C)CC3)c(F)cc3c(=O)c(C(=O)O)cn1c23 [Levofloxacin] + CN[C@H](CC(C)C)C(=O)N[C@H]1C(=O)N[C@@H](CC(N)=O)C(=O)N[C@H]2C(=O)N[C@H]3C(=O)N[C@H](C(=O)N[C@H](C(=O)O)c4cc(O)cc(O)c4-c4cc3ccc4O)[C@H](O[C@H]3C[C@](C)(N)[C@@H](O)[C@H](C)O3)c3ccc(c(Cl)c3)Oc3cc2cc(c3O[C@@H]2O[C@H](CO)[C@@H](O)[C@H](O)[C@H]2O[C@H]2C[C@](C)(NCc3ccc(-c4ccc(Cl)cc4)cc3)[C@@H](O)[C@H](C)O2)Oc2ccc(cc2Cl)[C@H]1O [Oritavancin]	0.031	0.0454	-0.0616	0.0291				
C[C@H]1COc2c(N3CCN(C)CC3)c(F)cc3c(=O)c(C(=O)O)cn1c23 [Levofloxacin] + CO[C@@]12[C@H](COC(N)=O)C3=C(C(=O)C(C)=C(N)C3=O)N1C[C@@H]1N[C@@H]12 [MitomycinC]	0.0422	0.0429	-0.0941	0.0462				
C[C@H]1COc2c(N3CCN(C)CC3)c(F)cc3c(=O)c(C(=O)O)cn1c23 [Levofloxacin] + Oc1cc(Cl)ccc1Oc1ccc(Cl)cc1Cl [Triclosan]	0.0373	-0.0181	0.054	-0.0551				
CN(C)C(=O)C(CCN1CCC(O)(c2ccc(Cl)cc2)CC1)(c1ccccc1)c1ccccc1 [Loperamide] + CC1(C)S[C@@H]2[C@H](NC(=O)Cc3ccccc3)C(=O)N2[C@H]1C(=O)O [PenicillinG]	0.0464	-0.068	-0.249	-0.14				
CN(C)C(=O)C(CCN1CCC(O)(c2ccc(Cl)cc2)CC1)(c1ccccc1)c1ccccc1 [Loperamide] + CCCCCCCCCC(=O)N[C@@H]1[C@H]([C@@H]([C@H](O[C@H]1OC2=C3C=C4C=C2OC5=C(C=C(C=C5)[C@H]([C@H]6C(=O)N[C@@H](C7=C(C(=CC(=C7)O)OC8[C@H]([C@H]([C@@H]([C@H](O8)CO)O)O)O)C9=C(C=CC(=C9)[C@H](C(=O)N6)NC(=O)[C@@H]4NC(=O)[C@@H]1C2=CC(=CC(=C2)OC2=C(C=CC(=C2)[C@H](C(=O)N[C@H](CC2=CC(=C(O3)C=C2)Cl)C(=O)N1)N)O)O)O)C(=O)O)O[C@H]1[C@@H]([C@H]([C@@H]([C@H](O1)CO)O)O)NC(=O)C)Cl)CO)O)O [Teicoplanin]					0.0883	-0.0955	-0.0953	-0.114
CN(C)C(=O)C(CCN1CCC(O)(c2ccc(Cl)cc2)CC1)(c1ccccc1)c1ccccc1 [Loperamide] + CC[C@H]1OC(=O)[C@H](C)C(=O)[C@H](C)[C@@H](O[C@@H]2O[C@H](C)C[C@H](N(C)C)[C@H]2O)[C@](C)(OC)C[C@@H](C)C(=O)[C@H](C)[C@H]2N(CCCCn3cnc(-c4cccnc4)c3)C(=O)O[C@]12C [Telithromycin]	0.0814	-0.024	0.0977	0.0619				
CN(C)C(=O)C(CCN1CCC(O)(c2ccc(Cl)cc2)CC1)(c1ccccc1)c1ccccc1 [Loperamide] + CN[C@H](CC(C)C)C(=O)N[C@H]1C(=O)N[C@@H](CC(N)=O)C(=O)N[C@H]2C(=O)N[C@H]3C(=O)N[C@H](C(=O)N[C@H](C(=O)O)c4cc(O)cc(O)c4-c4cc3ccc4O)[C@H](O[C@H]3C[C@](C)(N)[C@@H](O)[C@H](C)O3)c3ccc(c(Cl)c3)Oc3cc2cc(c3O[C@@H]2O[C@H](CO)[C@@H](O)[C@H](O)[C@H]2O[C@H]2C[C@](C)(NCc3ccc(-c4ccc(Cl)cc4)cc3)[C@@H](O)[C@H](C)O2)Oc2ccc(cc2Cl)[C@H]1O [Oritavancin]	0.0335	-0.062	-0.0409	-0.11				
CN(C)C(=O)C(CCN1CCC(O)(c2ccc(Cl)cc2)CC1)(c1ccccc1)c1ccccc1 [Loperamide] + CO[C@@]12[C@H](COC(N)=O)C3=C(C(=O)C(C)=C(N)C3=O)N1C[C@@H]1N[C@@H]12 [MitomycinC]	0.0277	-0.031	0.105	0.101				
